Measurements published in PubChem BioAssay AID1919004 (Molecular Pharmacology Branch, DTP, NCI, 2023).
Several values for one entry are separate records, joined by “and”; a condition that tells them apart may be missing. Equal values may be shown once. One block for each compound: values may come before it.

Test system: 883617-216-R-J1-PDC complex spheroids, growth, % test/control
Test: Anticancer human tumor 883617-216-R-J1-PDC patient-derived bladder carcinoma cell line growth inhibition [AhR]
Conditions: for viability, T/C: stronger effect = lower value
Procedure, shortened: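 Spheroids combined tumor cells with HUVEC endothelial cells and human MSCs as stroma. AhR antagonists were paired with standard or investigational drugs, each dosed in half-log steps down from near clinical Cmax, or from 10 microM where Cmax was unknown.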

[1] = curve of first compound, second compound 0.1 µM
[2] = curve of first compound, second compound 0.316 µM
[3] = curve of first compound, second compound 1 µM
[4] = curve of first compound, second compound 3.16 µM
[5] = curve of first compound, second compound 10 µM
[6] = second compound 0.1 µM, first compound 0.0316 µM
[7] = second compound 0.1 µM, first compound 0.1 µM
[8] = second compound 0.1 µM, first compound 0.316 µM
[9] = second compound 0.1 µM, first compound 1 µM
[10] = second compound 0.1 µM, first compound 3.16 µM
[11] = second compound 0.1 µM, first compound 10 µM
[12] = second compound 0.316 µM, first compound 0.0316 µM
[13] = second compound 0.316 µM, first compound 0.1 µM
[14] = second compound 0.316 µM, first compound 0.316 µM
[15] = second compound 0.316 µM, first compound 1 µM
[16] = second compound 0.316 µM, first compound 3.16 µM
[17] = second compound 0.316 µM, first compound 10 µM
[18] = second compound 1 µM, first compound 0.0316 µM
[19] = second compound 1 µM, first compound 0.1 µM
[20] = second compound 1 µM, first compound 0.316 µM
[21] = second compound 1 µM, first compound 1 µM
[22] = second compound 1 µM, first compound 3.16 µM
[23] = second compound 1 µM, first compound 10 µM
[24] = second compound 3.16 µM, first compound 0.0316 µM
[25] = second compound 3.16 µM, first compound 0.1 µM
[26] = second compound 3.16 µM, first compound 0.316 µM
[27] = second compound 3.16 µM, first compound 1 µM
[28] = second compound 3.16 µM, first compound 3.16 µM
[29] = second compound 3.16 µM, first compound 10 µM
[30] = second compound 10 µM, first compound 0.0316 µM
[31] = second compound 10 µM, first compound 0.1 µM
[32] = second compound 10 µM, first compound 0.316 µM
[33] = second compound 10 µM, first compound 1 µM
[34] = second compound 10 µM, first compound 3.16 µM
[35] = second compound 10 µM, first compound 10 µM
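Further: exposure lasted 7 days after dosing on day 3 of spheroid growth.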

SMILES: CC(C)c1c(-c2ccccc2)nc2c(C#N)c[nH]n2c1=O + CC(CO)NC(=O)c1cc(-c2ccc(Cl)cc2)nn(-c2cnn(C)c2)c1=O
IC50 [1]: > 10 µM
IC50 [2]: > 10 µM
IC50 [3]: > 10 µM
IC50 [4]: > 10 µM
IC50 [5]: > 10 µM
viability, T/C [6]: 77.3%
viability, T/C [7]: 71.2%
viability, T/C [8]: 66.1%
viability, T/C [9]: 70.4%
viability, T/C [10]: 84.5%
viability, T/C [11]: 96%
viability, T/C [12]: 94.8%
viability, T/C [13]: 85.2%
viability, T/C [14]: 65.7%
viability, T/C [15]: 74%
viability, T/C [16]: 91.4%
viability, T/C [17]: 75.6%
viability, T/C [18]: 59.7%
viability, T/C [19]: 97.8%
viability, T/C [20]: 103%
viability, T/C [21]: 92.6%
viability, T/C [22]: 87.1%
viability, T/C [23]: 78.3%
viability, T/C [24]: 95.2%
viability, T/C [25]: 92.5%
viability, T/C [26]: 75.2%
viability, T/C [27]: 79.3%
viability, T/C [28]: 51%
viability, T/C [29]: 57.7%
viability, T/C [30]: 79.4%
viability, T/C [31]: 87.1%
viability, T/C [32]: 106%
viability, T/C [33]: 57.8%
viability, T/C [34]: 64%
viability, T/C [35]: 62.5%

SMILES: COc1cc(Nc2ncc3c(n2)-c2ccc(Cl)cc2C(c2c(F)cccc2OC)=NC3)ccc1C(=O)O
viability, T/C (compound 0.0316 µM): 88.6% and 85% and 80.8%
viability, T/C (compound 0.1 µM): 78.9% and 73.3% and 119%
viability, T/C (compound 0.316 µM): 75.5% and 72% and 97.8%
viability, T/C (compound 1 µM): 74.1% and 70.4% and 84.2%
viability, T/C (compound 3.16 µM): 71.2% and 71% and 109%
viability, T/C (compound 10 µM): 72.2% and 65.5% and 117%
IC50 (curve of compound): > 10 µM

SMILES: NS(=O)(=O)OCC1CC(n2ccc3c(NC4CCc5ccccc54)ncnc32)CC1O (stereo unspecified)
viability, T/C (compound 0.0316 µM): 154% and 163% and 90.4%
viability, T/C (compound 0.1 µM): 209% and 200% and 81.5%
viability, T/C (compound 0.316 µM): 214% and 242% and 83.6%
viability, T/C (compound 1 µM): 140% and 130% and 64%
viability, T/C (compound 3.16 µM): 48.6% and 34.8% and 33.6%
viability, T/C (compound 10 µM): 24.7% and 20.3% and 48.3%
IC50 (curve of compound): 3.12 µM and 2.45 µM and 2.01 µM

Further lines, with some results ahead:

IC50 (curve of compound): 3.72 µM and 3.86 µM and > 10 µM
SMILES: COc1ccc([C@@H](O)c2cc(-c3ncnc4cc(N5CCOCC5)ccc34)c(F)cc2Cl)nn1
viability, T/C (compound 0.0316 µM): 110% and 102% and 97.7%
viability, T/C (compound 0.1 µM): 110% and 106% and 123%
viability, T/C (compound 0.316 µM): 86.4% and 91.7% and 70%
viability, T/C (compound 1 µM): 69.8% and 77.5% and 73.8%
viability, T/C (compound 3.16 µM): 54.8% and 51.5% and 64.2%
viability, T/C (compound 10 µM): 36.5% and 39.1% and 48.6%

IC50 [1]: 9.07 µM
IC50 [2]: 8.4 µM
IC50 [3]: 10 µM
IC50 [4]: 10 µM
IC50 [5]: 3.52 µM
SMILES: COc1ccc([C@@H](O)c2cc(-c3ncnc4cc(N5CCOCC5)ccc34)c(F)cc2Cl)nn1 + CC(CO)NC(=O)c1cc(-c2ccc(Cl)cc2)nn(-c2cnn(C)c2)c1=O
viability, T/C [6]: 83%
viability, T/C [7]: 94.7%
viability, T/C [8]: 76.8%
viability, T/C [9]: 75.9%
viability, T/C [10]: 60.1%
viability, T/C [11]: 49.1%
viability, T/C [12]: 69.9%
viability, T/C [13]: 128%
viability, T/C [14]: 83.1%
viability, T/C [15]: 63.9%
viability, T/C [16]: 124%
viability, T/C [17]: 42.2%
viability, T/C [18]: 86.4%
viability, T/C [19]: 99.7%
viability, T/C [20]: 55.9%
viability, T/C [21]: 58.9%
viability, T/C [22]: 61.4%
viability, T/C [23]: 42.1%
viability, T/C [24]: 64.8%
viability, T/C [25]: 135%
viability, T/C [26]: 73.6%
viability, T/C [27]: 61.7%
viability, T/C [28]: 37.1%
viability, T/C [29]: 51.6%
viability, T/C [30]: 119%
viability, T/C [31]: 81.7%
viability, T/C [32]: 88.7%
viability, T/C [33]: 73.4%
viability, T/C [34]: 51.1%
viability, T/C [35]: 32.4%
